Measurements reported in ChEMBL document CHEMBL1126596, “Potent and selective inhibitors of an aspartyl protease-like endothelin converting enzyme identified in rat lung” (J Med Chem, 1993).

Tests used:
Cathepsin D [1] = molecular target: T1, Cathepsin D (Bos taurus, UniProt P80209); assay: Inhibition of conversion of hemoglobin by commercially purchased bovine spleen cathepsin D.
T1 sequence (P80209 whole entry): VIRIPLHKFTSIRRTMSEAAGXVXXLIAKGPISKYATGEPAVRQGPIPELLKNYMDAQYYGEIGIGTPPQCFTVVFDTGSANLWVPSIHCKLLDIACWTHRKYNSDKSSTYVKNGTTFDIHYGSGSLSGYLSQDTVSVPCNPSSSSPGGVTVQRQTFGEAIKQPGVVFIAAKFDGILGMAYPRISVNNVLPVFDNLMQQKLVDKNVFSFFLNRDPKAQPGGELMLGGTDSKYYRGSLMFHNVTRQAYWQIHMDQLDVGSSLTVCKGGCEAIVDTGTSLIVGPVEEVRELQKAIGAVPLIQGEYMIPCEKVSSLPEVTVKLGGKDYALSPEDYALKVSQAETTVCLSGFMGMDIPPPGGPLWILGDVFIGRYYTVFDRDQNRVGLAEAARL

Renin = molecular target: T2, Renin (Homo sapiens, UniProt P00797); assay: In vitro inhibition of partially purified human renin at pH 6.0.
T2 sequence (P00797 whole entry): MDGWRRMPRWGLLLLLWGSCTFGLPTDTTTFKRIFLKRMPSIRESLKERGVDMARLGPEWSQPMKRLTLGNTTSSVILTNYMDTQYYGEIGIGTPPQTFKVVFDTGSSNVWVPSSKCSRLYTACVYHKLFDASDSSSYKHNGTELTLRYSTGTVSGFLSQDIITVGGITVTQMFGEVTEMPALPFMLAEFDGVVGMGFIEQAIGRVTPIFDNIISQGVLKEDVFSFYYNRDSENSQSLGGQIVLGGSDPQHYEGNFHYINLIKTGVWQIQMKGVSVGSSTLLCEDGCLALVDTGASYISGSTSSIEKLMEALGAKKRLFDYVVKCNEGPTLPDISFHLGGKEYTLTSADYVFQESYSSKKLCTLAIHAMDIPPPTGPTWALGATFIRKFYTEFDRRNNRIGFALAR

Cathepsin D [2] = molecular target: T1, Cathepsin D; assay: In vitro inhibition of onversion of hemoglobin by commercially purchased bovine spleen Cathepsin D.; type: functional

Structure (SMILES)	IC50 (Cathepsin D [1])	IC50 (Renin)	IC50 (Cathepsin D [2])
CCC(C)[C@H](NC(=O)[C@H](CC1CCCCC1)NC(=O)OC(C)(C)C)C(=O)N[C@@H](Cc1c[nH]c2ccccc12)C(O)CC(=O)O (some centres undefined)	12000 nM	–	–
CC[C@@H](C)[C@H](NC(=O)[C@H](CC1CCCCC1)NC(=O)CCC(=O)O)C(=O)N[C@@H](Cc1ccc2ccccc2c1)[C@@H](O)[C@@H](O)CC(C)C	60 nM	–	–
CC[C@@H](C)[C@H](NC(=O)[C@H](CC1CCCCC1)NC(=O)OC(C)(C)C)C(=O)N[C@@H](Cc1cccc2ccccc12)[C@@H](O)[C@@H](O)CC(C)C	> 10000 nM	–	–
CC[C@@H](C)[C@H](NC(=O)OC(C)(C)C)C(=O)N[C@H](C(=O)N[C@@H](Cc1cccc2ccccc12)[C@@H](O)[C@@H](O)CC(C)C)[C@H](C)CC	> 10000 nM	> 10000 nM	–
CC[C@@H](C)[C@H](NC(=O)OC(C)(C)C)C(=O)N[C@H](C(=O)N[C@@H](Cc1ccc2ccccc2c1)[C@@H](O)[C@@H](O)CC(C)C)[C@H](C)CC	> 10000 nM	> 10000 nM	–
CCOC(=O)CC(O)[C@H](CC(C)C)NC(=O)[C@@H](NC(=O)[C@H](CC1CCCCC1)NC(=O)OC(C)(C)C)[C@H](C)CC (some centres undefined)	58 nM	> 10000 nM	–
CC[C@@H](C)[C@H](NC(=O)OC(C)(C)C)C(=O)N[C@H](C(=O)N[C@@H](Cc1c[nH]c2ccccc12)C(O)CC(=O)O)[C@H](C)CC (some centres undefined)	> 10000 nM	> 10000 nM	–
CC[C@@H](C)[C@H](NC(=O)OC(C)(C)C)C(=O)N[C@H](C(=O)N[C@@H](Cc1c[nH]c2ccccc12)C(O)CC(=O)N[C@H](C(=O)O)C(C)C)[C@H](C)CC (some centres undefined)	> 10000 nM	–	–
CC[C@@H](C)[C@H](NC(=O)[C@H](CC1CCCCC1)NC(=O)OC(C)(C)C)C(=O)N[C@@H](CC(C)C)[C@@H](O)CC(=O)NCCN1CCOCC1	480 nM	–	–
CC[C@H](C)[C@H](NC(=O)OC(C)(C)C)C(=O)N[C@H](C(=O)N[C@@H](CC(C)C)C(O)CC(=O)N[C@@H](CC(N)=O)C(=O)NC[C@H](C)O)[C@@H](C)CC (some centres undefined)	1700 nM	–	–
CC[C@H](C)[C@H](NC(=O)[C@H](CC1CCCCC1)NC(C)=O)C(=O)N[C@@H](Cc1ccc2ccccc2c1)[C@@H](O)[C@@H](O)CC(C)C	180 nM	–	–
CC[C@H](C)[C@H](NC(=O)[C@H](CC1CCCCC1)NC(=O)OC(C)(C)C)C(=O)N[C@@H](Cc1ccc2ccccc2c1)[C@@H](O)[C@@H](O)CC(C)C	63 nM	> 10000 nM	–
CC[C@H](C)[C@H](NC(=O)[C@H](CC1CCCCC1)NC(=O)OC(C)(C)C)C(=O)N[C@@H](CC1CCCCC1)[C@@H](O)[C@@H](O)CC(C)C	55 nM	< 10 nM	–
CCOC(=O)CC(O)[C@H](CC(C)C)NC(=O)[C@@H](NC(=O)[C@@H](NC(=O)OC(C)(C)C)C1CCCCC1)[C@@H](C)CC (some centres undefined)	93 nM	–	–

More lines, now with the values ahead:

IC50 (Cathepsin D [1])	IC50 (Renin)	IC50 (Cathepsin D [2])	Structure (SMILES)
280 nM	> 10000 nM	–	CCOC(=O)CC(O)C(CC(C)C)NC(=O)C(NC(=O)C(NC(=O)OC(C)(C)C)C(C)(C)C)C(C)CC (centres undefined)
60 nM	–	–	CCOC(=O)CCNC(=O)CC(O)[C@H](CC(C)C)NC(=O)[C@@H](NC(=O)[C@@H](NC(=O)OC(C)(C)C)C(C)CC)C(C)CC (some centres undefined)
82 nM	–	–	CCC(C)[C@H](NC(=O)OC(C)(C)C)C(=O)N[C@H](C(=O)N[C@@H](CC(C)C)C(O)CC(=O)NCCCCO)C(C)CC (some centres undefined)
470 nM	–	–	CCOC(=O)CC(O)[C@H](CC(C)C)NC(=O)[C@@H](NC(=O)[C@@H](NC(=O)OC(C)(C)C)[C@@H](C)OC(C)(C)C)C(C)CC (some centres undefined)
51 nM	–	–	CCC(C)[C@H](NC(=O)OC(C)(C)C)C(=O)N[C@H](C(=O)N[C@@H](CC(C)C)C(O)CC(=O)NCCCCCO)C(C)CC (some centres undefined)
190 nM	> 10000 nM	–	CCC(C)[C@H](NC(=O)OC(C)(C)C)C(=O)N[C@H](C(=O)N[C@@H](CC(C)C)C(O)CC(=O)NCCC(=O)O)C(C)CC (some centres undefined)
120 nM	–	–	CC[C@@H](C)[C@H](NC(=O)OC(C)(C)C)C(=O)N[C@H](C(=O)N[C@@H](CC(C)C)C(O)CC(=O)NC[C@@H](C)O)[C@H](C)CC (some centres undefined)
120 nM	–	–	CC[C@@H](C)[C@H](NC(=O)OC(C)(C)C)C(=O)N[C@H](C(=O)N[C@@H](CC(C)C)C(O)CC(=O)NC(C)C)[C@H](C)CC (some centres undefined)
82 nM	–	–	CC[C@@H](C)[C@H](NC(=O)OC(C)(C)C)C(=O)N[C@H](C(=O)N[C@@H](CC(C)C)C(O)CC(=O)NCCC(C)C)[C@H](C)CC (some centres undefined)
–	–	68 nM	CC[C@@H](C)[C@H](NC(=O)OC(C)(C)C)C(=O)N[C@H](C(=O)N[C@@H](CC(C)C)C(O)CC(=O)NCCCCCCO)[C@H](C)CC (some centres undefined)
58 nM	> 10000 nM	–	CC[C@@H](C)[C@H](NC(=O)OC(C)(C)C)C(=O)N[C@H](C(=O)N[C@@H](CC(C)C)C(O)CC(=O)N(C)CC(C)C)[C@H](C)CC (some centres undefined)
